The subject of this data set is CCRIS mutagenicity, Ames/micronucleus/aberration tests. The experiment in a line: CCRIS mutagenicity studies.
Setting [1] is: Test System: AMES SALMONELLA TYPHIMURIUM, Strain/Indicator: TA98, Metabolic Activation: NONE, Method: PREINCUBATION
[2] abbreviates: Test System: AMES SALMONELLA TYPHIMURIUM, Strain/Indicator: TA100, Metabolic Activation: NONE, Method: PREINCUBATION
Where [3] appears, read: Test System: AMES SALMONELLA TYPHIMURIUM, Strain/Indicator: TA1535, Metabolic Activation: NONE, Method: PREINCUBATION
The mark [4] stands for this setting: Test System: AMES SALMONELLA TYPHIMURIUM, Strain/Indicator: TA98, Metabolic Activation: NONE, Method: STANDARD PLATE.
[5] abbreviates: Test System: AMES SALMONELLA TYPHIMURIUM, Strain/Indicator: TA100, Metabolic Activation: NONE, Method: STANDARD PLATE.
Where [6] appears, read: Test System: AMES SALMONELLA TYPHIMURIUM, Strain/Indicator: TA100, Metabolic Activation: RAT, LIVER, S-9, AROCLOR 1254, Method: STANDARD PLATE.

SMILES strings stand for the structures. Activity calls are given as the source filed them. How the calls were made is not given here.

As for `Nc1ccc(NCCO)c([N+](=O)[O-])c1`, the mutagenic call runs as follows: (Test System: AMES SALMONELLA TYPHIMURIUM, Strain/Indicator: TA97, Metabolic Activation: HAMSTER, LIVER, S-9, AROCLOR 1254 (10%), Method: PREINCUBATION) “active; positive”; (Test System: AMES SALMONELLA TYPHIMURIUM, Strain/Indicator: TA97, Metabolic Activation: HAMSTER, LIVER, S-9, AROCLOR 1254, Method: PREINCUBATION) “active; positive”; (Test System: AMES SALMONELLA TYPHIMURIUM, Strain/Indicator: TA97, Metabolic Activation: NONE, Method: PREINCUBATION) “active; positive”; (Test System: AMES SALMONELLA TYPHIMURIUM, Strain/Indicator: TA97, Metabolic Activation: RAT, LIVER, S-9, AROCLOR 1254 (10%), Method: PREINCUBATION) “active; positive”; (Test System: AMES SALMONELLA TYPHIMURIUM, Strain/Indicator: TA97, Metabolic Activation: RAT, LIVER, S-9, AROCLOR 1254, Method: PREINCUBATION) “active; positive”; (Test System: AMES SALMONELLA TYPHIMURIUM, Strain/Indicator: TA98, Metabolic Activation: HAMSTER, LIVER, S-9, AROCLOR 1254 (10%), Method: PREINCUBATION) “active; positive”. Besides, the mutagenic call reads like this: (Test System: AMES SALMONELLA TYPHIMURIUM, Strain/Indicator: TA98, Metabolic Activation: HAMSTER, LIVER, S-9, AROCLOR 1254, Method: PREINCUBATION) “active; positive”; under setting [1], “active; positive”; (Test System: AMES SALMONELLA TYPHIMURIUM, Strain/Indicator: TA98, Metabolic Activation: RAT, LIVER, S-9, AROCLOR 1254 (10%), Method: PREINCUBATION) “active; positive”; (Test System: AMES SALMONELLA TYPHIMURIUM, Strain/Indicator: TA98, Metabolic Activation: RAT, LIVER, S-9, AROCLOR 1254, Method: PREINCUBATION) “active; positive”; (Test System: AMES SALMONELLA TYPHIMURIUM, Strain/Indicator: TA100, Metabolic Activation: HAMSTER, LIVER, S-9, AROCLOR 1254 (10%), Method: PREINCUBATION) “active; positive”; (Test System: AMES SALMONELLA TYPHIMURIUM, Strain/Indicator: TA100, Metabolic Activation: HAMSTER, LIVER, S-9, AROCLOR 1254, Method: PREINCUBATION) “active; positive”. Also, the mutagenic call is “active; positive” under setting [2]; “active; positive” (Test System: AMES SALMONELLA TYPHIMURIUM, Strain/Indicator: TA100, Metabolic Activation: RAT, LIVER, S-9, AROCLOR 1254 (10%), Method: PREINCUBATION); “active; positive” (Test System: AMES SALMONELLA TYPHIMURIUM, Strain/Indicator: TA100, Metabolic Activation: RAT, LIVER, S-9, AROCLOR 1254, Method: PREINCUBATION); “inactive; negative” (Test System: AMES SALMONELLA TYPHIMURIUM, Strain/Indicator: TA1535, Metabolic Activation: HAMSTER, LIVER, S-9, AROCLOR 1254 (10%), Method: PREINCUBATION); “inactive; negative” (Test System: AMES SALMONELLA TYPHIMURIUM, Strain/Indicator: TA1535, Metabolic Activation: HAMSTER, LIVER, S-9, AROCLOR 1254, Method: PREINCUBATION); “inactive; negative” under setting [3]. The mutagenic call is, setting by setting: (Test System: AMES SALMONELLA TYPHIMURIUM, Strain/Indicator: TA1535, Metabolic Activation: RAT, LIVER, S-9, AROCLOR 1254 (10%), Method: PREINCUBATION) “inactive; negative”; (Test System: AMES SALMONELLA TYPHIMURIUM, Strain/Indicator: TA1535, Metabolic Activation: RAT, LIVER, S-9, AROCLOR 1254, Method: PREINCUBATION) “inactive; negative”.
On to `OCc1ccc2c3c(cccc13)-c1ccccc1-2`, for which the mutagenic call under setting [4] was “inactive; negative” and the mutagenic call under setting [5] is “inactive; negative”.
In the case of `C=CCn1cc2c3c(cccc31)[C@H]1C=C(CO)CN(C)[C@@H]1C2`, the mutagenic call under setting [6] was “active; positive”.
As to `CCCOC(=O)C=Cc1ccc([N+](=O)[O-])o1`, under setting [1], the mutagenic call is “active; positive”.
As to `CC1=CCC(=O)O1`, the mutagenic call under setting [4] was “inactive; negative”; the mutagenic call (Test System: AMES SALMONELLA TYPHIMURIUM, Strain/Indicator: TA98, Metabolic Activation: RAT, LIVER, S-9, AROCLOR 1254, Method: STANDARD PLATE) was “inactive; negative”; the mutagenic call under setting [5] is “inactive; negative”; the mutagenic call under setting [6] was “inactive; negative”.
With `CC(C)c1ccccc1O`, the mutagenic call is “inactive; negative” under setting [1]; “inactive; negative” (Test System: AMES SALMONELLA TYPHIMURIUM, Strain/Indicator: TA98, Metabolic Activation: RAT LIVER S-9, PHENOBARBITAL AND BETA-NAPHTHOFLAVONE, Method: PREINCUBATION); “inactive; negative” under setting [2]; “inactive; negative” (Test System: AMES SALMONELLA TYPHIMURIUM, Strain/Indicator: TA100, Metabolic Activation: RAT LIVER S-9, PHENOBARBITAL AND BETA-NAPHTHOFLAVONE, Method: PREINCUBATION); “inactive; negative” under setting [3]; “inactive; negative” (Test System: AMES SALMONELLA TYPHIMURIUM, Strain/Indicator: TA1535, Metabolic Activation: RAT LIVER S-9, PHENOBARBITAL AND BETA-NAPHTHOFLAVONE, Method: PREINCUBATION). Besides, the mutagenic call was “inactive; negative” (Test System: AMES SALMONELLA TYPHIMURIUM, Strain/Indicator: TA1537, Metabolic Activation: NONE, Method: PREINCUBATION); “inactive; negative” (Test System: AMES SALMONELLA TYPHIMURIUM, Strain/Indicator: TA1537, Metabolic Activation: RAT LIVER S-9, PHENOBARBITAL AND BETA-NAPHTHOFLAVONE, Method: PREINCUBATION); “inactive; negative” (Test System: E.COLI, Strain/Indicator: WP2UVRA/PKM101, Metabolic Activation: NONE, Method: PREINCUBATION); “inactive; negative” (Test System: E.COLI, Strain/Indicator: WP2UVRA/PKM101, Metabolic Activation: RAT LIVER S-9, PHENOBARBITAL AND BETA-NAPHTHOFLAVONE, Method: PREINCUBATION).
Take `CCN(CC)c1ccc(-c2ccccc2)c(-c2ccccc2)c1N(CC)CC`: the mutagenic call was “active; positive” (Test System: AMES SALMONELLA TYPHIMURIUM, Strain/Indicator: TA1538, Metabolic Activation: NONE, Method: STANDARD PLATE) and “active; positive” (Test System: AMES SALMONELLA TYPHIMURIUM, Strain/Indicator: TA1538, Metabolic Activation: RAT, LIVER, S-9, AROCLOR 1254, Method: STANDARD PLATE).
